In ChEMBL document CHEMBL1138377, “N-Substituted carbazolyloxyacetic acids modulate Alzheimer associated gamma-secretase” (Bioorg Med Chem Lett, 2007) one finds IC50, Activity and EC50 data, which are given here for 17 compounds.

Calls of active or inactive are those of the source. The calls are words filed in the database; no cut-off is given here. A value given as a limit tells only on which side of the number the result lay.

For orientation: IC50 means the midpoint of a concentration-inhibition curve.

The target in series [1] is Gamma-secretase. The experiment in a line: Effect on gamma-secretase activity in human H4 cells expressing APP695 assessed as reduction of Amyloid beta42 formation LPECL assay. The class given is cell-based.
The next series relates to H4. The series can be described thus: Cytotoxicity against human H4 cells assessed as reduction of viability. The class given is cell-based.
For series [2], the target named is Gamma-secretase. The experiment in a line: Effect on gamma-secretase activity in human H4 cells expressing APP695 assessed as increase in Amyloid beta-38 formation by LPECL assay. Type of series: cell-based. Conditions: read-out: IC50 (the source's name).
The target of series [3] is Gamma-secretase. The experiment in a line: Effect on gamma-secretase activity in human H4 cells expressing APP695 assessed as reduction of Amyloid beta-40 formation LPECL assay. Type of series: cell-based.
Series [4] has as its target T1, Prostaglandin G/H synthase 2 (Homo sapiens) (UniProt P35354).
T1 sequence (whole entry): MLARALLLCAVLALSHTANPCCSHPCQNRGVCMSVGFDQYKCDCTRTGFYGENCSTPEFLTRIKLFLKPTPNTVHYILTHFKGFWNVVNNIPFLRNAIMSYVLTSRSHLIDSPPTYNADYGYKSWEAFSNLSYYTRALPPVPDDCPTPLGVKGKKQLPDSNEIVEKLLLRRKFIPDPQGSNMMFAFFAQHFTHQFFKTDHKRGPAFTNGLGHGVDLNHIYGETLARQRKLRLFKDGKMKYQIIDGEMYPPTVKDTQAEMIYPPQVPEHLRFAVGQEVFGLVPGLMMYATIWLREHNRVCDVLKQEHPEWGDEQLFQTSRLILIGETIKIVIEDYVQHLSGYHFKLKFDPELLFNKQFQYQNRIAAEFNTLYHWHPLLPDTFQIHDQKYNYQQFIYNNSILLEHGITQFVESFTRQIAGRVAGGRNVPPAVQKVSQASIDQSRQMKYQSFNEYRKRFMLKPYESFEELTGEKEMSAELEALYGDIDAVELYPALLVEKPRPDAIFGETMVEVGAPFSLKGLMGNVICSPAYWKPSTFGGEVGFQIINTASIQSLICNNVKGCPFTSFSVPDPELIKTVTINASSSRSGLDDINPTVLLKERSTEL
The experiment in a line: Activity of COX2 at 10 uM.

Series [5] addresses Prostaglandin G/H synthase 1 (Homo sapiens) (UniProt P23219). The experiment in a line: Activity of COX1 at 10 uM.

Sequence of Prostaglandin G/H synthase 1 (Homo sapiens) (P23219 whole entry): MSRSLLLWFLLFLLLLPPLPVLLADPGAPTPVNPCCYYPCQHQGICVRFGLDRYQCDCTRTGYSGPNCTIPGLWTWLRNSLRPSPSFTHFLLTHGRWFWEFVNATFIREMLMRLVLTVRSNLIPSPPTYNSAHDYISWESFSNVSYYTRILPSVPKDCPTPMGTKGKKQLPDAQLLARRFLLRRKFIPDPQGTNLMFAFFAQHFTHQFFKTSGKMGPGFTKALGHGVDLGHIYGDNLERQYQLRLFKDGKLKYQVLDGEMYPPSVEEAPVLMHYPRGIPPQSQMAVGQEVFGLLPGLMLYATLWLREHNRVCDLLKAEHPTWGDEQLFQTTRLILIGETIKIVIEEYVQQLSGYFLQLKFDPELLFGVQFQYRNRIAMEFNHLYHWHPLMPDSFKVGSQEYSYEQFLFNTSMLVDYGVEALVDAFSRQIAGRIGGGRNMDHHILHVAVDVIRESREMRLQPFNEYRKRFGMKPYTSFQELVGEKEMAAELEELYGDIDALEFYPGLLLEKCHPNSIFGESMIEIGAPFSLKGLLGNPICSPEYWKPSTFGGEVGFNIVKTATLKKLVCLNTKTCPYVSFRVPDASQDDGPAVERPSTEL

Turning to `CCCCCCCCCn1c2ccccc2c2ccc(OCC(=O)O)cc21`, the IC50 at Gamma-secretase [1] was 17 µM; at Gamma-secretase [3] it was above 40 µM. Besides, in the series with H4, the Activity is above 40 µM. At Gamma-secretase [2], the EC50 is 30 µM.

Take `CC(C)c1cc(C(C)C)c(S(=O)(=O)n2c3ccccc3c3ccc(OCC(=O)O)cc32)c(C(C)C)c1`: the outcome in series [4] and in series [5] was inactive. For the same compound, the IC50 on Gamma-secretase [1] was found to be 7.5 µM; on Gamma-secretase [3], 19 µM. Also, the Activity with H4 was determined as 20 µM. In addition, the EC50 at Gamma-secretase [2] turned out to be 7.8 µM.

Regarding `Cc1ccc(S(=O)(=O)n2c3ccccc3c3ccc(OCC(=O)O)cc32)cc1`, the IC50 on Gamma-secretase [1] is 39 µM; at Gamma-secretase [3] it was above 40 µM. In addition, in the series with H4, the Activity is 20 µM. Also, the EC50 at Gamma-secretase [2] stood at 13 µM.

With `CCCCCCCCCCn1c2ccc(Cl)cc2c2ccc(C(C)C(=O)O)cc21` (configuration not stated), the IC50 is 2.9 µM on Gamma-secretase [1] and above 40 µM on Gamma-secretase [3]. In addition, the EC50 on Gamma-secretase [2] was determined as 5.8 µM.

Take `CCCc1ccc(S(=O)(=O)n2c3ccccc3c3ccc(OCC(=O)O)cc32)cc1`: the IC50 at Gamma-secretase [1] was 38 µM; on Gamma-secretase [3], above 40 µM. In the series with H4, the Activity was above 40 µM.

With `O=C(O)COc1ccc2c3ccccc3n(S(=O)(=O)c3cc(F)cc(F)c3)c2c1`, the IC50 on Gamma-secretase [1] and at Gamma-secretase [3] was above 40 µM throughout. The Activity with H4 turned out to be 40 µM. Moreover, on Gamma-secretase [2], the EC50 was found to be 13 µM.

`CCCCCCCCc1ccc(S(=O)(=O)n2c3ccccc3c3ccc(OCC(=O)O)cc32)cc1`: the IC50 on Gamma-secretase [1] is 37 µM; at Gamma-secretase [3] it was above 40 µM. Besides, the Activity in the series on H4 is above 40 µM.

Consider `O=C(O)COc1ccc2c3ccccc3n(S(=O)(=O)c3ccc(-c4ccccc4)cc3)c2c1`, for which the IC50 is 24 µM on Gamma-secretase [1] and 40 µM on Gamma-secretase [3]. The Activity with H4 came to 20 µM. Also, at Gamma-secretase [2], the EC50 is 13 µM.

On to `O=C(O)COc1ccc2c3ccccc3n(S(=O)(=O)c3cc(C(F)(F)F)cc(C(F)(F)F)c3)c2c1`, for which the IC50 on Gamma-secretase [1] and on Gamma-secretase [3] was above 40 µM throughout. Further, the Activity with H4 is 20 µM. For the same compound, at Gamma-secretase [2], the EC50 was above 40 µM.

Turning to `O=C(O)COc1ccc2c3ccccc3n(S(=O)(=O)c3ccc(Cl)cc3)c2c1`, the IC50 on Gamma-secretase [1] was 32 µM; on Gamma-secretase [3], above 40 µM. The Activity in the series on H4 was 40 µM. Besides, the EC50 at Gamma-secretase [2] was determined as 32 µM.

As to `CC(C)c1cc(C(C)C)c(S(=O)(=O)n2c3ccc(Cl)cc3c3ccc(C(C)C(=O)O)cc32)c(C(C)C)c1` (configuration not stated), the IC50 at Gamma-secretase [1] was 8.5 µM; at Gamma-secretase [3], above 20 µM. Further, the EC50 on Gamma-secretase [2] was 9.3 µM.

Regarding `CCCCCCCCCCn1c2ccccc2c2ccc(OCC(=O)O)cc21`, the IC50 on Gamma-secretase [1] is 11 µM; at Gamma-secretase [3], above 40 µM. For the same compound, in the series on H4, the Activity was above 40 µM.

Take `C[C@H](c1ccc(F)cc1CCCC(=O)O)N(c1cc(F)ccc1F)S(=O)(=O)c1ccc(Cl)cc1`: the IC50 on Gamma-secretase [1] amounted to 0.0071 µM.

Consider `CCCCCCCCn1c2ccccc2c2ccc(OCC(=O)O)cc21`, for which the IC50 is 19 µM at Gamma-secretase [1] and above 40 µM at Gamma-secretase [3]. For the same compound, the Activity in the series on H4 is above 40 µM. The EC50 at Gamma-secretase [2] is 24 µM.

In the case of `O=C(O)COc1ccc2c(c1)[nH]c1ccccc12`, the half-inhibitory concentration (IC50) on Gamma-secretase [1] and at Gamma-secretase [3] was above 40 µM each time. Besides, the Activity in the series on H4 is above 40 µM. In addition, on Gamma-secretase [2], the EC50 is above 40 µM.

In the case of `O=C(O)COc1ccc2c3ccccc3n(S(=O)(=O)c3ccccc3Br)c2c1`, the IC50 at Gamma-secretase [1] and at Gamma-secretase [3] was above 40 µM each time. Moreover, the Activity in the series with H4 was 40 µM. Besides, the EC50 on Gamma-secretase [2] was above 40 µM.

In the case of `O=C(O)COc1ccc2c3ccccc3n(S(=O)(=O)c3cccc([N+](=O)[O-])c3)c2c1`, the IC50 at Gamma-secretase [1] and on Gamma-secretase [3] was above 40 µM in each case. Besides, the Activity in the series on H4 stood at 40 µM. In addition, the EC50 on Gamma-secretase [2] was found to be 16 µM.
